Broadly, the melting point is the temperature, or range, at which the solid turns liquid.

Each structure is given as a SMILES string.

Regarding `CC(=O)N(C)c1cccc(N/C(=C2\C(=O)Nc3ccccc32)c2ccccc2)c1` [Example 38, (Z)-3-{1-[3-(N-acetyl-N-methylamino)-phenylamino]-1-phenyl-methylidene}-2-indolinone], the melting point is 237 to 239 °C.
The same measure for `O=C1Nc2ccccc2/C1=C(/Nc1ccc(C(=O)O)cc1)c1ccccc1` [Example 17, (Z)-3-[1-(4-carboxy-phenylamino)-1-phenyl-methylidene]-2-indolinone]: 312 to 316 °C; for `CC(=O)NCc1cccc(N/C(=C2\C(=O)Nc3ccc([N+](=O)[O-])cc32)c2ccccc2)c1` [Example 138, (Z)-3-[1-(3-acetylaminomethyl-phenylamino)-1-phenyl-methylidene]-5-nitro-2-indolinone]: 238 °C.
As for `CN(C)CCN(c1ccc(N/C(=C2\C(=O)Nc3ccc([N+](=O)[O-])cc32)c2ccccc2)cc1)S(C)(=O)=O` [Example 202, (Z)-3-{1-[4-(N-(2-dimethylamino-ethyl)-N-methylsulphonyl-amino)-phenylamino]-1-phenyl-methylidene}-5-nitro-2-indolinone], the melting point lay within 276 to 277 °C.
Then `CCOC(=O)c1ccc(N/C(=C2\C(=O)Nc3ccccc32)c2ccccc2)cc1` [Example 13, (Z)-3-[1-(4-ethoxycarbonyl-phenylamino)-1-phenyl-methylidene]-2-indolinone], with 227 to 228 °C; and `CN(C)CCN(c1ccc(N/C(=C2\C(=O)Nc3ccccc32)c2ccccc2)cc1)S(=O)(=O)c1ccccc1` [Example 312, (Z)-3-{1-[4-(N-(2-dimethylaminoethyl)-N-phenylsulphonyl-amino)-phenylamino]-1-phenyl-methylidene}-2-indolinone], with 241 to 243 °C; and `O=C1Nc2ccccc2/C1=C(/Nc1ccc(NS(=O)(=O)CCN2CCCCC2)cc1)c1ccccc1` [Example 380, (Z)-3-{1-[4-(2-piperidinoethylsulphonylamino)-phenylamino]-1-phenyl-methylidene}-2-indolinone], with 225 to 227 °C.
The molecule `CC(=O)N1CCN(Cc2ccc(N/C(=C3\C(=O)Nc4ccc([N+](=O)[O-])cc43)c3ccccc3)cc2)CC1` [Example 246, (Z)-3-{1-[4-(4-acetylpiperazin-1-ylmethyl)-phenylamino]-1-phenyl-methylidene}-5-nitro-2-indolinone] yielded a melting point of 275 to 277 °C.
The same measure for `CN(C(=O)CN1C(=O)c2ccccc2C1=O)c1ccc(N/C(=C2\C(=O)Nc3ccccc32)c2ccccc2)cc1` [Example 365, (Z)-3-{1-[4-(N-phthalimidomethylcarbonyl-N-methyl-amino)-phenylamino]-1-phenyl-methylidene}-2-indolinone]: 278 to 280 °C; for `O=C1Nc2ccc([N+](=O)[O-])cc2/C1=C(/Nc1ccc(CN2CCC(CO)CC2)cc1)c1ccccc1` [Example 250, (Z)-3-{1-[4-(4-hydroxymethyl-piperidinomethyl)-phenylamino]-1-phenyl-methylidene}-5-nitro-2-indolinone]: 227 to 228 °C; for `CCS(=O)(=O)N(CCN1CCOCC1)c1ccc(N/C(=C2\C(=O)Nc3ccccc32)c2ccccc2)cc1` [Example 308, (Z)-3-{1-[4-(N-(2-morpholinoethyl)-N-ethylsulphonyl-amino)-phenylamino]-1-phenyl-methylidene}-2-indolinone]: 222 to 224 °C.
Then `CN(C)C(=O)CN(c1ccc(N/C(=C2\C(=O)Nc3ccc([N+](=O)[O-])cc32)c2ccccc2)cc1)S(=O)(=O)c1ccccc1` [Example 209, (Z)-3-{1-[4-(N-dimethylaminocarbonylmethyl-N-phenylsulphonyl-amino)-phenylamino]-1-phenyl-methylidene}-5-nitro-2-indolinone], with 160 to 162 °C.
As to `Cc1ccc(S(=O)(=O)N(CC(=O)N(C)C)c2ccc(N/C(=C3\C(=O)Nc4ccc([N+](=O)[O-])cc43)c3ccccc3)cc2)cc1` [Example 210, (Z)-3-{1-[4-(N-dimethylaminocarbonylmethyl-N-(p-tolylsulphonyl)-amino)-phenylamino]-1-phenyl-methylidene}-5-nitro-2-indolinone], the melting point lay in the range of 198 to 200 °C.
The molecule `CCOC(=O)CCNCc1cccc(N/C(=C2\C(=O)Nc3ccc([N+](=O)[O-])cc32)c2ccccc2)c1` [Example 112, (Z)-3-{1-[3-(2-ethoxycarbonyl-ethylaminomethyl)-phenylamino]-1-phenyl-methylidene}-5-nitro-2-indolinone] returned a melting point of 142 to 145 °C.
The same measure for `O=C1Nc2ccc([N+](=O)[O-])cc2/C1=C(/Nc1ccc(CN2CCC(Cc3ccccc3)CC2)cc1)c1ccccc1` [Example 172, (Z)-3-{1-[4-(4-phenylmethyl-piperidinomethyl)-phenylamino]-1-phenyl-methylidene}-5-nitro-2-indolinone]: 252 °C.
On to `CN(Cc1ccc(N/C(=C2\C(=O)Nc3ccc([N+](=O)[O-])cc32)c2ccccc2)cc1)C1CCCC1` [Example 277, (Z)-3-{1-[4-(N-cyclopentyl-N-methyl-aminomethyl)-phenylamino]-1-phenyl-methylidene}-5-nitro-2-indolinone], for which the melting point was 228 °C.
The same measure for `CCOC(=O)CNC(=O)c1cccc(N/C(=C2\C(=O)Nc3ccccc32)c2ccccc2)c1` [Example 23, (Z)-3-[1-(3-ethoxycarbonylmethylaminocarbonyl-phenylamino)-1-phenyl-methylidene]-2-indolinone]: 233 to 235 °C.
Then `CS(=O)(=O)N(CC(=O)O)c1ccc(N/C(=C2\C(=O)Nc3ccc([N+](=O)[O-])cc32)c2ccccc2)cc1` [Example 199, (Z)-3-{1-[4-(N-carboxymethyl-N-methylsulphonyl-amino)-phenyl-amino]-1-phenyl-methylidene}-5-nitro-2-indolinone], with 180 to 183 °C; and `CN(c1ccc(N/C(=C2\C(=O)Nc3ccc([N+](=O)[O-])cc32)c2ccccc2)cc1)S(C)(=O)=O` [Example 197, (Z)-3-{1-[4-(N-methyl-N-methylsulphonyl-amino)-phenylamino]-1-phenyl-methylidene}-5-nitro-2-indolinone], with 306 to 308 °C; and `CC(C)(C)OC(=O)NCc1ccc(N/C(=C2\C(=O)Nc3ccc([N+](=O)[O-])cc32)c2ccc(CNC(=O)c3ccccc3C(=O)O)cc2)cc1` [Example 147, (Z)-3-{1-[4-tert.butoxycarbonylaminomethyl-phenylamino]-1-[4-(2-carboxyphenyl)-carbonylaminomethyl-phenyl]-methylidene}-5-nitro-2-indolinone], with 138 °C (dec.).
Then `O=C1Nc2ccccc2/C1=C(/Nc1ccc(OCCCN2CCCCC2)cc1)c1ccccc1` [Example 287, (Z)-3-{1-[4-(3-piperidinopropyloxy)-phenylamino]-1-phenyl-methylidene}-2-indolinone], with 223 to 225 °C; and `O=C1Nc2ccc([N+](=O)[O-])cc2/C1=C(/Nc1ccc(CN2CCCCC2)cc1)c1ccc(C(=O)O)cc1` [Example 445, (Z)-3-[1-(4-piperidinomethyl-phenylamino)-1-(4-carboxyphenyl)-methylidene]-5-nitro-2-indolinone], with 230 °C; and `CN(C)C(=O)CCNCc1cccc(N/C(=C2\C(=O)Nc3ccc([N+](=O)[O-])cc32)c2ccccc2)c1` [Example 253, (Z)-3-{1-[3-(2-dimethylaminocarbonyl-ethylaminomethyl)-phenylamino]-1-phenyl-methylidene}-5-nitro-2-indolinone], with 177 to 179 °C.
Consider `O=C1Nc2ccccc2/C1=C(/Nc1ccccc1)c1ccccc1` [Example 1, (Z)-3-(1-Anilino-1-phenyl-methylidene)-2-indolinone], for which the melting point was found to be 325 °C.
Then `CCCCS(=O)(=O)N(CC(=O)N(C)C)c1ccc(N/C(=C2\C(=O)Nc3ccccc32)c2ccccc2)cc1` [Example 306, (Z)-3-{1-[4-(N-(dimethylaminocarbonylmethyl)-N-butylsulphonyl-amino)-phenylamino]-1-phenyl-methylidene}-2-indolinone], with 121 to 123 °C; and `CC(=O)N(CCCN(C)C)c1ccc(N/C(=C2\C(=O)Nc3ccccc32)c2ccccc2)cc1` [Example 344, (Z)-3-{1-[4-(N-(3-dimethylaminopropyl)-N-acetyl-amino)-phenylamino]-1-phenyl-methylidene}-2-indolinone], with 227 °C.
Then `COC(=O)/C=C/c1ccc(/C(Nc2ccc(OC)cc2)=C2/C(=O)Nc3ccc([N+](=O)[O-])cc32)cc1` [Example 435, (Z)-3-{1-(4-methoxyphenylamino)-1-[(E)-4-(2-methoxycarbonylethenyl)-phenyl]-methylidene}-5-nitro-2-indolinone], with 266 to 270 °C; and `CC(C)C(=O)N(CCN(C)C)c1ccc(N/C(=C2\C(=O)Nc3ccc([N+](=O)[O-])cc32)c2ccccc2)cc1` [Example 330, (Z)-3-{1-[4-(N-(2-dimethylaminoethyl)-N-isopropylcarbonyl-amino)-phenylamino]-1-phenyl-methylidene}-5-nitro-2-indolinone], with 296 to 298 °C.
The molecule `CCC(=O)N(CCN(C)C)c1ccc(N/C(=C2\C(=O)Nc3ccc([N+](=O)[O-])cc32)c2ccccc2)cc1` [Example 329, (Z)-3-{1-[4-(N-(2-dimethylaminoethyl)-N-propionyl-amino)-phenylamino]-1-phenyl-methylidene}-5-nitro-2-indolinone] gave a melting point of 263 to 265 °C.
`CCN(CC)CC(=O)Nc1ccc(N/C(=C2\C(=O)Nc3ccccc32)c2ccccc2)cc1.Cl` showed a melting point of 267 to 269 °C.
For the molecule `CS(=O)(=O)Nc1ccc(N/C(=C2\C(=O)Nc3ccc([N+](=O)[O-])cc32)c2ccccc2)cc1` [Example 196, (Z)-3-[(4-methylsulphonylamino-phenylamino)-1-phenyl-methylidene]-5-nitro-2-indolinone], the melting point is 344 to 346 °C.
Take `O=CNc1cccc(N/C(=C2\C(=O)Nc3ccccc32)c2ccccc2)c1` [Example 30, (Z)-3-[1-(3-formylamino-phenylamino)-1-phenyl-methylidene]-2-indolinone]: the melting point came out at 231 °C.
